# Test results taken from patent US12378224B2 (Dong-A Socio Holdings Co., Ltd., priority 2016, dated 2025).
# Molecular target: human c-MER catalytic domain (Homo sapiens (Human), UniProt Q12866)
# Test: TR-FRET Kinase Activity Biochemical Assay (LanthaScreen)
# Conditions: 10 uM ATP, 1 hour, kinase not given
# Method in brief: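 Activity was quantified as the ratio of 495 nm to 520 nm emission (excitation 340 nm) in a LanthaScreen TR-FRET format. The enzyme was the human c-MER catalytic domain, and the substrate was fluorescein-poly-GT. Detection used 2 nM Tb anti-phosphotyrosine antibody for 30 min after termination with 10 mM EDTA.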
# Chain of human c-MER catalytic domain (Q12866 587-858): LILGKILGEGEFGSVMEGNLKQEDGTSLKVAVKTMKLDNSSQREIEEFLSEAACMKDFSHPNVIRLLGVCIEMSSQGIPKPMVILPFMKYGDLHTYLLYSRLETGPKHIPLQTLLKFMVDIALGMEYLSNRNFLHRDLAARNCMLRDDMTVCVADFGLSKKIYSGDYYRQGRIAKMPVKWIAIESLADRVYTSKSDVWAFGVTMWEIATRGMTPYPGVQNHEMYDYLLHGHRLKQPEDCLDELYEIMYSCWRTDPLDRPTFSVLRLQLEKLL
row,SMILES,IC50 [nM]
1,"Cn1cc(-c2cnc(N)c(C(=O)N[C@@H]3CCN(CC(=O)c4ccccc4)C3)c2)cn1 [Example 215, (R)-2-amino-5-(1-methyl-1H-pyrazol-4-yl)-N-(1-(2-oxo-2-phenylethyl)pyrrolidin-3-yl)nicotinamide]",> 1000
2,"Cn1cc(-c2cnc(N)c(C(=O)NC3(CO)CCN(C(=O)c4cccc(-c5ccccc5)c4)C3)c2)cn1 (stereo not drawn) [Example 672, N-(1-([1,1′-biphenyl]-3-carbonyl)-3-(hydroxymethyl)pyrrolidin-3-yl)-2-amino-5-(1-methyl-1H-pyrazol-4-yl)nicotinamide]",> 1000
3,"C[C@H]1CCCC[C@H]1OC(=O)N1CC[C@@H](NC(=O)c2cc(-c3cnn(C)c3)cnc2N)C1 [Example 108, (1R,2S)-2-methylcyclohexyl (R)-3-(2-amino-5-(1-methyl-1H-pyrazol-4-yl)nicotinamido)pyrrolidine-1-carboxylate]",> 1000
4,"CCSc1ccc(-c2ccc(C(=O)N3CC[C@@H](NC(=O)c4cc(-c5cnn(C)c5)cnc4N)C3)cc2)cc1 [Example 666, (R)-2-amino-N-(1-(4′-(ethylthio)-[1,1′-biphenyl]-4-carbonyl)pyrrolidin-3-yl)-5-(1-methyl-1H-pyrazol-4-yl)nicotinamide]",100 to 1000
5,"CCOC(=O)C1CN(C(=O)c2ccc(-c3ccccc3)cc2)CC1NC(=O)c1cc(-c2cnn(C)c2)cnc1N (stereo not drawn) [Example 687, ethyl 1-([1,1′-biphenyl]-4-carbonyl)-4-(2-amino-5-(1-methyl-1H-pyrazol-4-yl)nicotinamido)pyrrolidine-3-carboxylate]",> 1000
6,"Cn1cc(-c2cnc(N)c(C(=O)N[C@@H]3CCN(Cc4cccc(Oc5ccccc5)c4)C3)c2)cn1 [Example 221, (R)-2-amino-5-(1-methyl-1H-pyrazol-4-yl)-N-(1-(3-phenoxybenzyl)pyrrolidin-3-yl)nicotinamide]",> 1000
7,"Nc1ncc(-c2ccc(N3CCOCC3)cc2)cc1C(=O)N[C@@H]1CCN(C(=O)c2ccc(-c3ccccc3Cl)cc2)C1 [Example 571, (R)-2-amino-N-(1-(2′-chloro-[1,1′-biphenyl]-4-carbonyl)pyrrolidin-3-yl)-5-(4-morpholinophenyl)nicotinamide]",10 to 100
8,"Cc1ccc(-c2ccc(C(=O)N3CC[C@@H](NC(=O)c4cc(-c5cnn(C)c5)cnc4N)C3)cc2C)s1 [Example 536, (R)-2-amino-5-(1-methyl-1H-pyrazol-4-yl)-N-(1-(3-methyl-4-(5-methylthiophen-2-yl)benzoyl)pyrrolidin-3-yl)nicotinamide]",10 to 100
9,"Cn1cc(-c2cnc(N)c(C(=O)N[C@@H]3CCN(C(=O)c4ccc(-c5cccc(C=O)c5)cc4)C3)c2)cn1 [Example 382, (R)-2-amino-N-(1-(3′-formyl-[1,1′-biphenyl]-4-carbonyl)pyrrolidin-3-yl)-5-(1-methyl-1H-pyrazol-4-yl)nicotinamide]",10 to 100
10,"Cn1cc(-c2cnc(N)c(C(=O)N[C@@H]3CCN(C(=O)c4cccc(-c5cccc(N6CCCCC6)c5)c4)C3)c2)cn1 [Example 477, (R)-2-amino-5-(1-methyl-1H-pyrazol-4-yl)-N-(1-(3′-(piperidin-1-yl)-[1,1′-biphenyl]-3-carbonyl)pyrrolidin-3-yl)nicotinamide]",> 1000
11,"Cn1cc(-c2cnc(N)c(C(=O)N[C@@H]3CCN(C(=O)Nc4cccc(Br)c4)C3)c2)cn1 [Example 24, (R)-2-amino-N-(1-((3-bromophenyl)carbamoyl)pyrrolidin-3-yl)-5-(1-methyl-1H-pyrazol-4-yl)nicotinamide]",100 to 1000
12,"Cc1ccc(N2CC[C@@H](NC(=O)c3cc(-c4cnn(C)c4)cnc3N)C2)cc1 [Example 134, (R)-2-amino-5-(1-methyl-1H-pyrazol-4-yl)-N-(1-(p-tolyl)pyrrolidin-3-yl)nicotinamide]",> 1000
13,"Cn1cc(-c2cnc(N)c(C(=O)N[C@@H]3CCN(C(=O)Oc4cccc(-c5ccc(CNCC6CNC6)cc5)c4)C3)c2)cn1 [Example 309, 4′-(((azetidin-3-ylmethyl)amino)methyl)-[1,1′-biphenyl]-3-yl (R)-3-(2-amino-5-(1-methyl-1H-pyrazol-4-yl)nicotinamido)pyrrolidine-1-carboxylate]",10 to 100
14,"Cn1cc(-c2cnc(N)c(C(=O)N[C@@H]3CCN(C(=O)Oc4cccc(-c5ccc(CNCC(=O)O)cc5)c4)C3)c2)cn1 [Example 326, (R)-((3′-((3-(2-amino-5-(1-methyl-1H-pyrazol-4-yl)nicotinamido)pyrrolidine-1-carbonyl)oxy)-[1,1′-biphenyl]-4-yl)methyl)glycine]",100 to 1000
15,"Cn1cc(-c2cnc(N)c(C(=O)N[C@@H]3CCN(C(=O)c4ccc(-c5ccc(Oc6cccc(N)c6)cc5)cc4)C3)c2)cn1 [Example 530, (R)-2-amino-N-(1-(4′-(3-aminophenoxy)-[1,1′-biphenyl]-4-carbonyl)pyrrolidin-3-yl)-5-(1-methyl-1H-pyrazol-4-yl)nicotinamide]",10 to 100
16,"Cn1cc(-c2cnc(N)c(C(=O)N[C@@H]3CCN(C(=O)Oc4cccc(-c5ccc(CN6CCOCC6)cc5)c4)C3)c2)cn1 [Example 335, 4′-(morpholinomethyl)-[1,1′-biphenyl]-3-yl (R)-3-(2-amino-5-(1-methyl-1H-pyrazol-4-yl)nicotinamido)pyrrolidine-1-carboxylate]",100 to 1000
17,"Cn1cc(-c2cnc(N)c(C(=O)N[C@@H]3CCN(C(=O)c4ccc(-c5ccncc5)cc4)C3)c2)cn1 [Example 489, (R)-2-amino-5-(1-methyl-1H-pyrazol-4-yl)-N-(1-(4-(pyridin-4-yl)benzoyl)pyrrolidin-3-yl)nicotinamide]",100 to 1000
18,"Cn1cc(-c2cnc(N)c(C(=O)N[C@@H]3CCN(C(=O)c4cn(-c5ccccc5)nc4C(F)(F)F)C3)c2)cn1 [Example 516, (R)-2-amino-5-(1-methyl-1H-pyrazol-4-yl)-N-(1-(1-phenyl-3-(trifluoromethyl)-1H-pyrazole-4-carbonyl)pyrrolidin-3-yl)nicotinamide]",> 1000
19,"COc1ccc(-c2cnc(N)c(C(=O)N[C@@H]3CCN(C(=O)c4ccc(-c5ccccc5)cc4)C3)c2)cc1 [Example 555, (R)—N-(1-([1,1′-biphenyl]-4-carbonyl)pyrrolidin-3-yl)-2-amino-5-(4-methoxyphenyl)nicotinamide]",100 to 1000
20,"Cn1cc(-c2cnc(N)c(C(=O)N[C@@H]3CCN(C(=O)OC4CCN(c5ccccc5)C4)C3)c2)cn1 (stereo partly drawn) [Example 126, 1-phenylpyrrolidin-3-yl (3R)-3-(2-amino-5-(1-methyl-1H-pyrazol-4-yl)nicotinamido)pyrrolidine-1-carboxylate]",> 1000
21,"CN1CCN(CCc2cccc(-c3cccc(C(=O)N4CC[C@@H](NC(=O)c5cc(-c6cnn(C)c6)cnc5N)C4)c3)c2)CC1 [Example 453, (R)-2-amino-5-(1-methyl-1H-pyrazol-4-yl)-N-(1-(3′-(2-(4-methylpiperazin-1-yl)ethyl)-[1,1′-biphenyl]-3-carbonyl)pyrrolidin-3-yl)nicotinamide]",> 1000
22,"CCc1ccccc1NC(=O)N1CC[C@@H](NC(=O)c2cc(-c3cnn(C)c3)cnc2N)C1 [Example 20, (R)-2-amino-N-(1-((2-ethylphenyl)carbamoyl)pyrrolidin-3-yl)-5-(1-methyl-1H-pyrazol-4-yl)nicotinamide]",> 1000
23,"CN1CCN(Cc2ccc(-c3cc(Cl)cc(OC(=O)N4CC[C@@H](NC(=O)c5cc(-c6cnn(C)c6)cnc5N)C4)c3)cc2)CC1 [Example 292, 5-chloro-4′-((4-methylpiperazin-1-yl)methyl)-[1,1′-biphenyl]-3-yl (R)-3-(2-amino-5-(1-methyl-1H-pyrazol-4-yl)nicotinamido)pyrrolidine-1-carboxylate]",< 10
24,"CN1CCN(Cc2ccc(Oc3ccc(OC(=O)N4CC[C@@H](NC(=O)c5cc(-c6cnn(C)c6)cnc5N)C4)cc3)cc2)CC1 [Example 113, 4-(4-((4-methylpiperazin-1-yl)methyl)phenoxy)phenyl (R)-3-(2-amino-5-(1-methyl-1H-pyrazol-4-yl)nicotinamido)pyrrolidine-1-carboxylate]",100 to 1000
25,"CC(O)c1ccc(-c2ccc(C(=O)N3CC[C@@H](NC(=O)c4cc(-c5cnn(C)c5)cnc4N)C3)cc2)s1 (stereo partly drawn) [Example 542, 2-amino-N-((3R)-1-(4-(5-(1-hydroxyethyl)thiophen-2-yl)benzoyl)pyrrolidin-3-yl)-5-(1-methyl-1H-pyrazol-4-yl)nicotinamide]",100 to 1000
26,"Nc1ncc(-c2ccc(CO)cc2)cc1C(=O)N[C@@H]1CCN(C(=O)Nc2cc(Cl)cc(Cl)c2)C1 [Example 10, (R)-2-amino-N-(1-((3,5-dichlorophenyl)carbamoyl)pyrrolidin-3-yl)-5-(4-(hydroxymethyl)phenyl)nicotinamide]",10 to 100
27,"CN(C)CCCOc1ccc2cc(OC(=O)N3CC[C@@H](NC(=O)c4cc(-c5cnn(C)c5)cnc4N)C3)ccc2c1 [Example 301, 6-(3-(dimethylamino)propoxy)naphthalen-2-yl (R)-3-(2-amino-5-(1-methyl-1H-pyrazol-4-yl)nicotinamido)pyrrolidine-1-carboxylate]",100 to 1000
28,"Cn1cc(-c2cnc(N)c(C(=O)N[C@@H]3CCN(Cc4ccc(F)c(C5=CCNCC5)c4)C3)c2)cn1 [Example 252, (R)-2-amino-N-(1-(4-fluoro-3-(1,2,3,6-tetrahydropyridin-4-yl)benzyl)pyrrolidin-3-yl)-5-(1-methyl-1H-pyrazol-4-yl)nicotinamide]",> 1000
29,"Cn1cc(-c2cnc(N)c(C(=O)N[C@@H]3CCN(C(=O)c4nn(C)c5ccccc45)C3)c2)cn1 [Example 499, (R)-2-amino-N-(1-(1-methyl-1H-indazole-3-carbonyl)pyrrolidin-3-yl)-5-(1-methyl-1H-pyrazol-4-yl)nicotinamide]",100 to 1000
30,"Cn1cc(-c2cnc(N)c(C(=O)N[C@@H]3CCN(C(=O)c4ccc(-c5ccc(Nc6ccc(N)cc6)cc5)cc4)C3)c2)cn1 [Example 815, (R)-2-amino-N-(1-(4′-((4-aminophenyl)amino)-[1,1′-biphenyl]-4-carbonyl)pyrrolidin-3-yl)-5-(1-methyl-1H-pyrazol-4-yl)nicotinamide]",10 to 100
